How the values were obtained:
[1] = Plasma metabolite profile after ^13C-glutamine tracer load in mouse model of acute graft-versus-host disease; format: in vivo; settings: for circulating total glutamine concentration in plasma, change: grafted host (allo-transplanted) mice compared to control donor and control host mice
Experimental: To investigate metabolic adaptations that occur in response to allo-activation, host strain animals (female B6D2F1 mice, H-2b/d) were injected with 50-75 million spleen cells from donor strain animals (female B6.SJL mice, H-2b). […] Eight days after injection, transplanted mice along with control non-transplanted animals from the host and donor strains received with U-^13C(6)-glutamine (Sigma#60516, 1.0 g/kg I.P.) or U-^13C(5)-glucose (Sigma#660663, 1.0 g/kg I.P.) or potassium U-^13C(16)-palmitate (Sigma#687871, 1.0 g/kg, gastric gavage). Treatment groups of four mice each were euthanized 60 minutes after the glutamine or glucose tracer loads or 180 minutes after palmitate tracer load by over exposure to carbon dioxide. Terminal blood samples were collected by cardiac puncture, plasma prepared after blood was mixed with heparin and frozen at −80° C. Spleens were removed and processed to isolate T cells as separate fractions derived from either the donor or host strains of mice. Samples were stored on dry ice overnight and then stored at −80° C. until analyzed using GC/MS-based mass isotopomer analysis.

[2] = test system: T cells; assay: ^13C delta in CO2 in spleen T cells after ^13C-palmitate tracer load, acute graft-versus-host disease model; format: in vivo, mouse
Experimental: To investigate metabolic adaptations that occur in response to allo-activation, host strain animals (female B6D2F1 mice, H-2b/d) were injected with 50-75 million spleen cells from donor strain animals (female B6.SJL mice, H-2b). The miss-match between the strains major histocompatibility antigens (e.g., H-2b/d versus H-2b) causes T cell activation of donor T cells in vivo and results in a mouse model of acute graft versus host disease. Eight days after injection, transplanted mice along with control non-transplanted animals from the host and donor strains received with U-^13C(6)-glutamine (Sigma#60516, 1.0 g/kg I.P.) or U-^13C(5)-glucose (Sigma#660663, 1.0 g/kg I.P.) or potassium U-^13C(16)-palmitate (Sigma#687871, 1.0 g/kg, gastric gavage). Treatment groups of four mice each were euthanized 60 minutes after the glutamine or glucose tracer loads or 180 minutes after palmitate tracer load by over exposure to carbon dioxide. Terminal blood samples were collected by cardiac puncture, plasma prepared after blood was mixed with heparin and frozen at −80° C. Spleens were removed and processed to isolate T cells as separate fractions derived from either the donor or host strains of mice. Samples were stored on dry ice overnight and then stored at −80° C. until analyzed using GC/MS-based mass isotopomer analysis.

[3] = test system: T cells; assay: Molar percent enrichment of [4,5-^13C2]-L-glutamate in spleen T cells after ^13C-palmitate tracer load; format: in vivo, mouse
From the text: The molar percent enrichment of [4,5-^13C2]-L-glutamate is the amount of [4,5-^13C2]-L-glutamate in a sample divided by the total amount of all ^13C-labeled glutamate isotopomers in the sample.

Row | SMILES | circulating total glutamine concentration in plasma, change [1] | circulating total glutamine concentration in plasma, change ([1]; listed as glutamine) | share of ^13C-labeled glutamine fraction still uniformly ^13C-labeled ([1]; grafted host animals, plasma, one hour after glutamine tracer load) [%] | ^13C delta in CO2 ([2]; allo-activated donor type T cells versus control naive donor type T cells, FIG. 4B) | ^13C delta in CO2 ([2]; host T cells from allo-transplanted mouse versus host-type T cells from healthy host control, FIG. 5B) | molar percent enrichment of [4,5-^13C2]-L-glutamate ([3]; allo-activated donor T cells versus control naive T cells, FIG. 6) | molar percent enrichment of [4,5-^13C2]-L-glutamate ([3]; host T cells from allo-transplanted mouse versus T cells from healthy host control, FIG. 7)
1 | NC(=O)CCC(N)C(=O)O [[U-^13C5]-L-glutamine] | more than two-fold drop | reduction | 83.4 | – | – | – | –
2 | [13CH3][13CH2][13CH2][13CH2][13CH2][13CH2][13CH2][13CH2][13CH2][13CH2][13CH2][13CH2][13CH2][13CH2][13CH2][13C](=O)[O-].[K+] [uniformly labeled ^13C-palmitate, potassium U-^13C(16)-palmitate] | – | – | – | higher | no statistically significant difference | over six times greater | no statistically significant difference

— US20150031068A1, “METHODS AND COMPOSITIONS FOR DETECTING IMMUNE SYSTEM ACTIVATION” (Lycera Corporation, priority 2012, published 2015)
